Test results from patent US7745483B2, “2-Halofuryl-thienyl-3-carboxamides” (Bayer CropScience AG, priority 2004, dated 2010).

System: Puccinia recondita
Test: Puccinia test (wheat)/protective
Type: in vivo
Settings: 240 h, protective, application rate 500 g/ha, evaluation 10 days after inoculation, read-out: Efficacy in %
Method: [table] To produce a suitable preparation of active compound, 1 part by weight of active compound is mixed with the stated amounts of solvent and emulsifier, and the concentrate is diluted with water to the desired concentration. To test for protective activity, young plants are sprayed with the preparation of active compound at the stated application rate. After the spray coating has dried on, the plants are sprayed with a conidia suspension Puccinia recondita. The plants remain in an incubation cabin at 20° C. and 100% relative atmospheric humidity for 48 hours. The plants are then placed in a greenhouse at a temperature of about 20° C. and a relative atmospheric humidity of 80% to promote the development of rust pustules. Evaluation is carried out 10 days after the inoculation. 0% means an efficacy which corresponds to that of the control, whereas an efficacy of 100% means that no infection is observed.

`O=C(Nc1ccccc1-c1ccc(Br)c(Cl)c1)c1ccsc1I` [drawing 265] and `O=C(Nc1ccccc1-c1ccc(Cl)c(Cl)c1)c1ccsc1I` [drawing 271] are the same in pest or weed control at 500 g/ha: 100% for the first, 100% for the second.

`CC(C)(C)CCc1cc(F)ccc1NC(=O)c1ccsc1I` [drawing 266] and `CC(C)CC(C)c1cc(F)ccc1NC(=O)c1ccsc1I` (centres unmarked) [drawing 279] are the same in pest or weed control at 500 g/ha: 100% for the first, 100% for the second.

`O=C(Nc1ccccc1-c1ccc(Cl)cc1)c1ccoc1I` [drawing 267] and `O=C(Nc1ccccc1-c1ccc(Br)cc1)c1ccoc1I` [drawing 268] are the same in pest or weed control at 500 g/ha: 100% for the first, 100% for the second.

`CC(CC(C)(C)C)c1ccccc1NC(=O)c1ccoc1I` (centres unmarked) [drawing 269] and `CC(CC(C)(C)C)c1ccccc1NC(=O)c1ccsc1I` (centres unmarked) [drawing 272] are the same in pest or weed control at 500 g/ha: 100% for the first, 100% for the second.

Going from `O=C(Nc1ccccc1-c1ccc(Cl)c(F)c1)c1ccoc1I` [drawing 270] to `O=C(Nc1ccccc1-c1ccc(Cl)c(F)c1)c1ccsc1I` [drawing 274], the pest or weed control at 500 g/ha falls from 100% to 94%.

Compared with `C=C(CC(C)(C)C)c1ccccc1NC(=O)c1ccsc1I` [drawing 273], `CC(C[Si](C)(C)C)c1ccccc1NC(=O)c1ccsc1I` (centres unmarked) [drawing 276] is higher in pest or weed control at 500 g/ha: 93% for the first, 100% for the second.

`CC(C[Si](C)(C)C)c1ccccc1NC(=O)c1ccoc1I` (centres unmarked) [drawing 275] and `CC(C[Si](C)(C)C)c1cc(F)ccc1NC(=O)c1ccsc1I` (centres unmarked) [drawing 287] are the same in pest or weed control at 500 g/ha: 100% for the first, 100% for the second.

`O=C(Nc1ccc(F)cc1-c1ccc(Cl)c(Cl)c1)c1ccsc1I` [drawing 277] and `O=C(Nc1ccccc1-c1ccc(F)c(Cl)c1)c1ccsc1I` [drawing 286] are the same in pest or weed control at 500 g/ha: 100% for the first, 100% for the second.

`CC1CC(C)(C)c2cccc(NC(=O)c3ccsc3I)c21` (centres unmarked) [drawing 278] and `CC(C)CC(C)c1sccc1NC(=O)c1ccsc1I` (centres unmarked) [drawing 281] are the same in pest or weed control at 500 g/ha: 100% for the first, 100% for the second.

`CO/N=C/c1ccc(-c2ccccc2NC(=O)c2ccsc2I)cc1F` [drawing 280] and `O=C(Nc1ccccc1-c1ccc(Cl)c(F)c1)c1ccsc1Br` [drawing 285] are the same in pest or weed control at 500 g/ha: 100% for the first, 100% for the second.

`CC(C)CC(C)c1ccccc1NC(=O)c1ccsc1Br` (centres unmarked) [drawing 282] and `CC(CC(C)(C)C)c1ccccc1NC(=O)c1ccsc1Br` (centres unmarked) [drawing 283] are the same in pest or weed control at 500 g/ha: 100% for the first, 100% for the second.

Work on `O=C(Nc1ccccc1-c1ccc(Cl)c(Cl)c1)c1ccsc1Br` [drawing 284] yielded a pest or weed control at 500 g/ha of 100%.

System: Alternaria solani
Test: Alternaria test (tomato)/protective
Type: in vivo
Settings: protective, application rate 750 g/ha, evaluation 7 days after inoculation
Method: [table] To produce a suitable preparation of active compound, 1 part by weight of active compound is mixed with the stated amounts of solvent and emulsifier, and the concentrate is diluted with water to the desired concentration. To test for protective activity, young tomato plants are sprayed with the preparation of active compound at the stated application rate. One day after the treatment, the plants are inoculated with a spore suspension of Alternaria solani and then remain at 100% relative humidity and at 20° C. for 24 hours. The plants then remain at 96% relative atmospheric humidity and a temperature of 20° C. Evaluation is carried out 7 days after the inoculation. 0% means an efficacy which corresponds to that of the control, whereas an efficacy of 100% means that no infection is observed.

Compared with `CC(C)(C)CCc1ccccc1NC(=O)c1ccsc1I` [drawing 288], `CC(C)CC(C)c1ccccc1NC(=O)c1ccsc1I` (centres unmarked) [drawing 289] is higher in Efficacy in %: 94% for the first, 100% for the second.

In the case of `CC(C)CC(C)c1ccccc1NC(=O)c1ccoc1I` (centres unmarked) [drawing 290], the Efficacy in % is reported as 94%.
